Measurements published in article PMC2649376 (Molecular membrane biology, 2006).
Numbering of substitutions follows the chain as printed.

Experiments:
[1] = biological target: T1, F130A mutant 5-HT3 receptor (Mus musculus, UniProt P23979, F130A); assay: FlexStation membrane potential dye functional assay; format: cell-based
T1 sequence (P23979 24-483 isoform P23979-2 F130A limits assumed): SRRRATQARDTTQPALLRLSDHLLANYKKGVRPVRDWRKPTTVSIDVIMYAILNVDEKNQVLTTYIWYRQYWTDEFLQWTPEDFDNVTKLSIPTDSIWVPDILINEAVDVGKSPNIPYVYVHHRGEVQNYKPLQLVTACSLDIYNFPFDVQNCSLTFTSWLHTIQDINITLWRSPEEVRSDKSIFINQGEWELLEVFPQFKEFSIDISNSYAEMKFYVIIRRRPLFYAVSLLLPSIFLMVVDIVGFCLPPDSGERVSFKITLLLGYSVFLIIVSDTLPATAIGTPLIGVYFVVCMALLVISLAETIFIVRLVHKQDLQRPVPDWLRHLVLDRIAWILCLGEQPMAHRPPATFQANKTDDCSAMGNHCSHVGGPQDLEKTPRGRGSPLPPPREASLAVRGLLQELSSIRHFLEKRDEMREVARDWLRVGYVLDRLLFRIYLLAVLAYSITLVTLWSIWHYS

[2] = biological target: T2, N128V mutant 5-HT3 receptor (Mus musculus, UniProt P23979, N128V); assay: as above; format: cell-based
T2 sequence (P23979 24-483 isoform P23979-2 N128V limits assumed): T1 sequence (P23979 24-483 isoform P23979-2 F130A limits assumed) with N105V, A107F

[3] = biological target: T3, N128D mutant 5-HT3 receptor (Mus musculus, UniProt P23979, N128D); conditions: HEK 293 cells
T3 sequence (P23979 24-483 isoform P23979-2 N128D limits assumed): T1 sequence (P23979 24-483 isoform P23979-2 F130A limits assumed) with N105D, A107F

[4] = biological target: T4, N128L mutant 5-HT3 receptor (Mus musculus, UniProt P23979, N128L); conditions: HEK 293 cells
T4 sequence (P23979 24-483 isoform P23979-2 N128L limits assumed): T1 sequence (P23979 24-483 isoform P23979-2 F130A limits assumed) with N105L, A107F

[5] = biological target: T5, F130Y mutant 5-HT3 receptor (Mus musculus, UniProt P23979, F130Y); assay: FlexStation membrane potential dye functional assay; format: cell-based; conditions: HEK 293 cells
T5 sequence (P23979 24-483 isoform P23979-2 F130Y limits assumed): T1 sequence (P23979 24-483 isoform P23979-2 F130A limits assumed) with A107Y

[6] = biological target: T6, N128E mutant 5-HT3 receptor (Mus musculus, UniProt P23979, N128E); assay: as above; format: cell-based
T6 sequence (P23979 24-483 isoform P23979-2 N128E limits assumed): T1 sequence (P23979 24-483 isoform P23979-2 F130A limits assumed) with N105E, A107F

[7] = biological target: T7, F130W mutant 5-HT3 receptor (Mus musculus, UniProt P23979, F130W); assay: as above; format: cell-based
T7 sequence (P23979 24-483 isoform P23979-2 F130W limits assumed): T1 sequence (P23979 24-483 isoform P23979-2 F130A limits assumed) with A107W

[8] = biological target: T5, F130Y mutant 5-HT3 receptor; conditions: whole cell electrophysiology, ref Steward et al. 2000; cited from earlier work
[9] = biological target: T8, N128R mutant 5-HT3 receptor (Mus musculus, UniProt P23979, N128R)
T8 sequence (P23979 24-483 isoform P23979-2 N128R limits assumed): T1 sequence (P23979 24-483 isoform P23979-2 F130A limits assumed) with N105R, A107F

[10] = biological target: T9, N128Q mutant 5-HT3 receptor (Mus musculus, UniProt P23979, N128Q); conditions: HEK 293 cells
T9 sequence (P23979 24-483 isoform P23979-2 N128Q limits assumed): T1 sequence (P23979 24-483 isoform P23979-2 F130A limits assumed) with N105Q, A107F

[11] = biological target: F130N mutant 5-HT3 receptor; conditions: F130N mutant receptor activated with acetylcholine; ref Steward et al. 2000; cited from earlier work

For `NCCc1c[nH]c2ccc(O)cc12` [5-HT, 5-hydroxytryptamine], the “change in EC50 versus wild type” value [1] was “four-fold decrease in EC50”, the “Hill Coefficient” value ([1]; HEK 293 cells) was 2.959±0.39 and the “change in EC50 versus wild type” value [2] was “four-fold decrease in EC50”. For the same molecule, the “Hill Coefficient” value ([2]; HEK 293 cells) was 1.809±0.34, the “Hill Coefficient” value [3] was 2.169±0.68 and the “Hill Coefficient” value [4] was 2.519±0.15. The “Hill Coefficient” value [5] was 2.609±0.39, the “change in EC50 versus wild type” value [6] was “did not significantly affect the EC50” and the “Hill Coefficient” value ([6]; HEK 293 cells) was 2.369±0.12. For the same molecule, the “change in EC50 versus wild type” value [7] was “four-fold decrease in EC50”, the “Hill Coefficient” value ([7]; HEK 293 cells) was 2.159±0.35 and the “increase in EC50 versus wild type reported previously” value [8] was 8 fold. The “factor of increase in EC50 versus wild type” value [9] was roughly 1500 and the “Hill Coefficient” value [10] was 1.929±0.08.
For `CC(=O)OCC[N+](C)(C)C` [acetylcholine], the EC50 [11] is given as 256 µM.
